We go through 15 compounds from US11851406B2, “Positive allosteric modulators of the muscarinic acetylcholine receptor M1” (Vanderbilt University, priority 2018, dated 2023).

Broadly, the EC50 is the concentration that produces a half-maximal response. One may read the Emax as the maximal effect, on the per cent scale that the assay sets.

Test [1] has as its target T1, human mAChR M1 (Homo sapiens, UniProt P11229).
T1 sequence (P11229 1-460): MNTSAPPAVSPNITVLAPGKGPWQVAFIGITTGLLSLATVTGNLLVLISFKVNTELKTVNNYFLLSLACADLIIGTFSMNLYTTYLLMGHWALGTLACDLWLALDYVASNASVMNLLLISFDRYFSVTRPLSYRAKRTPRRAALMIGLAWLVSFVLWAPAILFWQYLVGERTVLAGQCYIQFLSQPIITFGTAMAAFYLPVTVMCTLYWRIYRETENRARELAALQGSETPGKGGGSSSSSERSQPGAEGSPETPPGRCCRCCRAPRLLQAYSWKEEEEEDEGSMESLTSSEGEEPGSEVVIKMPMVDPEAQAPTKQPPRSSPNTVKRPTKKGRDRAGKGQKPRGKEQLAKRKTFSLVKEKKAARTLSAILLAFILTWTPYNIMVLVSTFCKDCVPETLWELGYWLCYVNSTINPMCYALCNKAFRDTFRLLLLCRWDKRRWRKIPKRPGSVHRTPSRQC
Put plainly: mAChR M1 cell-based functional assay (calcium mobilization), PAM activity: increase in the EC20 acetylcholine response. Conditions: CHO-K1 cells expressing hM1; calcium flux (Fluo-4); potentiation of EC20 acetylcholine response. An excerpt:
(§1) Chinese hamster ovary (CHO-K1) cells stably expressing rat (r)M1 were purchased from the American Type Culture Collection and cultured according to their indicated protocol. CHO cells stably expressing human (h)M2, hM3, and hM5 were described previously (Levey, et al., 1991); hM1 and hM4 cDNAs were purchased from Missouri S&T cDNA Resource; rM4 cDNA was provided by T. I. Bonner (National Institutes of Health, Bethesda, Md.). rM2 and rM3 were cloned from a rat brain cDNA library and sequence verified. hM1, rM2, rM3, hM4, and rM4 cDNAs were used to stably transfect CHO-K1 cells purchased from the American Type Culture Collection using Lipofectamine2000. To make stable rM2, hM2, rM3, hM4, and rM4 cell lines for use in calcium mobilization assays, these cells also were stably transfected with a chimeric G-protein (Gqi5) (provided by B. R. Conklin, University of California, San Francisco) using Lipofectamine 2000. rM1, hM1, rM3, hM3, rM5, and hM5 cells were grown in Ham's F-12 medium containing 10% heat-inactivated fetal bovine serum (FBS), 20 mM HEPES, and 50 μg/mL G418 sulfate. rM2-Gqi5, hM2-Gqi5, and hM4-Gqi5 cells were grown in the same medium also containing 500 μg/mL Hygromycin B. Stable rM4-Gqi5 cells were grown in DMEM containing 10% heat-inactivated FBS, 20 mM HEPES, 400 μg/mL G418 sulfate, and 500 μg/mL Hygromycin B.
(§2) For high throughput measurement of agonist-evoked increases in intracellular calcium, CHO-K1 cells stably expressing muscarinic receptors were plated in growth medium lacking G418 and hygromycin at 15,000 cells/20 μL/well in Greiner 384-well black-walled, tissue culture (TC)-treated, clear-bottom plates (VWR). Cells were incubated overnight at 37° C. and 5% CO2. The next day, cells were washed using an ELX 405 (BioTek) with four washes (80 μL) of assay buffer then aspirated to 20 μL. Next, 20 μL of 16 μM Fluo-4/acetoxymethyl ester (Invitrogen, Carlsbad, Calif.) prepared as a 2.3 mM stock in DMSO and mixed in a 1:1 ratio with 10% (w/v) Pluronic F-127 and diluted in assay buffer was added to the wells and the cell plates were incubated for 50 min at 37° C. and 5% CO2. Dye was removed by washing with the ELX 405 (four 80 μL washes of assay buffer) then aspirated to 20 μL. Compound master plates were formatted in an 11 point CRC format (1:3 dilutions) in 100% DMSO with a starting concentration of 10 mM using the BRAVO liquid handler (Agilent). Test compound CRCs were then transferred to daughter plates (240 nL) using the Echo acoustic plate reformatter (Labcyte, Sunnyvale, Calif.) and then diluted into assay buffer (40 μL) to a 2× stock using a Thermo Fisher Combi (Thermo Fisher Scientific, Waltham, Mass.).
(§3) Calcium flux was measured using the Functional Drug Screening System (FDSS) 6000 (Hamamatsu Corporation, Tokyo, Japan) as an increase in the fluorescent static ratio. Compounds were applied to cells (20 μL, 2×) using the automated system of the FDSS 6000 at 4 s into the 300 s protocol and the data were collected at 1 Hz. At 144 s into the 300 s protocol, 10 μL of an EC20 concentration of the muscarinic receptor agonist acetylcholine was added (5×), followed by the addition of 12 μL an EC80 concentration of acetylcholine at the 230 s time point (5×). Agonist activity was analyzed as a concentration-dependent increase in calcium mobilization upon compound addition. Emax values for agonist activity are expressed relative to the maximum for acetylcholine. Positive allosteric modulator activity was analyzed as a concentration-dependent increase in the EC20 acetylcholine response. Antagonist activity was analyzed as a concentration-dependent decrease in the EC80 acetylcholine response. Concentration-response curves were generated using a four-parameter logistical equation in XLfit curve fitting software (IDBS, Bridgewater, N.J.) for Excel (Microsoft, Redmond, Wash.) or Prism (GraphPad Software, Inc., San Diego, Calif.).
(Calcium assays in cells follow changes in intracellular calcium, usually with a dye or a luminescent sensor.)

In test [2] the target is T1, human mAChR M1. The test is described as follows: mAChR M1 cell-based functional assay (calcium mobilization), agonist activity upon compound addition alone. Conditions: CHO-K1 cells expressing hM1; for EC50: calcium mobilization upon compound addition, no acetylcholine; for Emax: compound alone, relative to the maximum for acetylcholine.
From the text: as §1, §2, §3

As to `Cc1c(Cc2ccc(-c3ccn(C)n3)cc2)cc(C(=O)NC[C@@H]2CCCO2)nc1-c1ccn(C)n1` [Compound 15, (S)-5-methyl-6-(1-methyl-1H-pyrazol-3-yl)-4-(4-(1-methyl-1H-pyrazol-3-yl)benzyl)-N-((tetrahydrofuran-2-yl)methyl)picolinamide], on human mAChR M1 [1], the EC50 was 4.61 µM and the Emax is 82%. Besides, on human mAChR M1 [2], the EC50 was above 10 µM and the Emax was below 5%.

Turning to `Cc1c(Cc2ccc(-c3ccn(C)n3)cc2)cc(C(=O)NC[C@H]2CCCO2)nc1-c1ccn(C)n1` [Compound 16, (R)-5-methyl-6-(1-methyl-1H-pyrazol-3-yl)-4-(4-(1-methyl-1H-pyrazol-3-yl)benzyl)-N-((tetrahydrofuran-2-yl)methyl)picolinamide], the Emax is 62% at human mAChR M1 [1] and below 5% on human mAChR M1 [2]. At human mAChR M1 [2], the EC50 is above 10 µM.

Turning to `Cc1c(Cc2ccc(-c3ccn(C)n3)cc2)cc(C(=O)NC2CCOCC2(C)C)nc1-c1ccn(C)n1` (stereo not shown) [Compound 17, N-(3,3-dimethyltetrahydro-2H-pyran-4-yl)-5-methyl-6-(1-methyl-1H-pyrazol-3-yl)-4-(4-(1-methyl-1H-pyrazol-3-yl)benzyl)picolinamide], the EC50 at human mAChR M1 [1] is 2.26 µM; on human mAChR M1 [2] it was above 10 µM. The Emax at human mAChR M1 [1] was 86%; on human mAChR M1 [2] it was below 5%.

`Cn1cc(-c2ccc(Cc3cc(C(=O)N[C@H]4CCOC[C@@H]4O)nc(-n4cccn4)c3)cn2)cn1` [Compound 18, N-((3R,4S)-3-hydroxytetrahydro-2H-pyran-4-yl)-4-((6-(1-methyl-1H-pyrazol-4-yl)pyridin-3-yl)methyl)-6-(1H-pyrazol-1-yl)picolinamide]: at human mAChR M1 [1], the half-maximal effective concentration (EC50) is 1.02 µM and the maximum response (Emax) worked out at 85%. Moreover, on human mAChR M1 [2], the EC50 was at least 10 µM and the maximum response (Emax) was 13%.

Turning to `Cc1nc(-c2ccc(Cc3cc(C(=O)N[C@H]4CCOC[C@@H]4O)nc(-n4cccn4)c3)cc2)co1` [Compound 19, N-((3R,4S)-3-hydroxytetrahydro-2H-pyran-4-yl)-4-(4-(2-methyloxazol-4-yl)benzyl)-6-(1H-pyrazol-1-yl)picolinamide], on human mAChR M1 [1], the EC50 stood at 1.97 µM and the Emax worked out at 88%. At human mAChR M1 [2], the EC50 was above 10 µM and the Emax was below 5%.

For `Cn1cc(-c2ccc(Cc3cc(C(=O)N[C@H]4CCCC[C@@H]4O)nc(-n4cccn4)c3)cn2)cn1` [Compound 20, N-((1S,2S)-2-hydroxycyclohexyl)-4-((6-(1-methyl-1H-pyrazol-4-yl)pyridin-3-yl)methyl)-6-(1H-pyrazol-1-yl)picolinamide], at human mAChR M1 [1], the concentration for a half-maximal effect (EC50) is 2.25 µM and the maximal effect (Emax) is 61%. On human mAChR M1 [2], the 50% effective concentration (EC50) was above 10 µM and the maximal effect (Emax) was below 5%.

Regarding `Cn1cc(-c2ccc(Cc3cc(C(=O)NC4CC5(COC5)C4)nc(-n4cccn4)c3)cn2)cn1` [Compound 21, 4-((6-(1-methyl-1H-pyrazol-4-yl)pyridin-3-yl)methyl)-6-(1H-pyrazol-1-yl)-N-(2-oxaspiro[3.3]heptan-6-yl)picolinamide], the maximal response (Emax) on human mAChR M1 [1] is 40%. Further, on human mAChR M1 [2], the half-maximal effective concentration (EC50) was above 10 µM and the maximal effect (Emax) was below 5%.

For `Cc1nc(-c2ccc(Cc3cc(C(=O)N[C@H]4CCCC[C@@H]4O)nc(-n4cccn4)c3)cc2)co1` [Compound 22, N-((1S,2S)-2-hydroxycyclohexyl)-4-(4-(2-methyloxazol-4-yl)benzyl)-6-(1H-pyrazol-1-yl)picolinamide], the values for the EC50 on human mAChR M1 [1] and at human mAChR M1 [2] were 0.634 µM and at least 10 µM, respectively. The Emax on human mAChR M1 [1] turned out to be 86%; at human mAChR M1 [2] it was 11%.

On to `Cc1nc(-c2ccc(Cc3cc(C(=O)NC4CC5(COC5)C4)nc(-n4cccn4)c3)cc2)co1` [Compound 23, 4-(4-(2-methyloxazol-4-yl)benzyl)-6-(1H-pyrazol-1-yl)-N-(2-oxaspiro[3.3]heptan-6-yl)picolinamide], for which, at human mAChR M1 [1], the half-maximal effective concentration (EC50) was determined as 6.25 µM and the Emax stood at 69%. On human mAChR M1 [2], the EC50 is above 10 µM and the Emax is below 5%.

Regarding `Cc1nc(-c2ccc(Cc3cc(C(=O)N[C@H]4CCC[C@@H]4O)nc(-n4cccn4)c3)cc2)co1` [Compound 24, N-((1S,2S)-2-hydroxycyclopentyl)-4-(4-(2-methyloxazol-4-yl)benzyl)-6-(1H-pyrazol-1-yl)picolinamide], on human mAChR M1 [1], the half-maximal effective concentration (EC50) was 4.91 µM and the Emax was 78%. On human mAChR M1 [2], the EC50 is above 10 µM and the maximum response (Emax) was below 5%.

Take `Cc1nc(-c2ccc(Cc3cc(C(=O)N[C@H]4CC[C@@H]4O)nc(-n4cccn4)c3)cc2)co1` [Compound 25, N-((1S,2S)-2-hydroxycyclobutyl)-4-(4-(2-methyloxazol-4-yl)benzyl)-6-(1H-pyrazol-1-yl)picolinamide]: the Emax on human mAChR M1 [1] came out at 40%. Besides, at human mAChR M1 [2], the EC50 is above 10 µM and the Emax is below 5%.

As to `Cn1cc(-c2ccc(Cc3cc(C(=O)NC4CCOCC4)nc(-n4cccn4)c3)cn2)cn1` [Compound 26, 4-((6-(1-methyl-1H-pyrazol-4-yl)pyridin-3-yl)methyl)-6-(1H-pyrazol-1-yl)-N-(tetrahydro-2H-pyran-4-yl)picolinamide], the Emax on human mAChR M1 [1] worked out at 47%; at human mAChR M1 [2] it was 5%. The 50% effective concentration (EC50) on human mAChR M1 [2] is above 10 µM.

In the case of `Cc1nc(-c2ccc(Cc3cc(C(=O)NC4CCOCC4)nc(-n4cccn4)c3)cc2)co1` [Compound 27, 4-(4-(2-methyloxazol-4-yl)benzyl)-6-(1H-pyrazol-1-yl)-N-(tetrahydro-2H-pyran-4-yl)picolinamide], the maximum response (Emax) on human mAChR M1 [1] came out at 62%; at human mAChR M1 [2] it was 6%. Moreover, the 50% effective concentration (EC50) on human mAChR M1 [2] is above 10 µM.

In the case of `Cn1ccc(-c2ccc(Cc3cc(C(=O)N[C@H]4CCOC[C@@H]4O)nc(-n4cccn4)c3)cc2)n1` [Compound 28, N-((3R,4S)-3-hydroxytetrahydro-2H-pyran-4-yl)-4-(4-(1-methyl-1H-pyrazol-3-yl)benzyl)-6-(1H-pyrazol-1-yl)picolinamide], on human mAChR M1 [1], the EC50 turned out to be 1.07 µM and the Emax worked out at 78%. Besides, on human mAChR M1 [2], the concentration for a half-maximal effect (EC50) was above 10 µM and the Emax was determined as 7%.

With `Cn1ccc(-c2ccc(Cc3cc(C(=O)N[C@H]4CCCC[C@@H]4O)nc(-n4cccn4)c3)cc2)n1` [Compound 29, N-((1S,2S)-2-hydroxycyclohexyl)-4-(4-(1-methyl-1H-pyrazol-3-yl)benzyl)-6-(1H-pyrazol-1-yl)picolinamide], at human mAChR M1 [1], the 50% effective concentration (EC50) amounted to 2.1 µM and the maximum response (Emax) turned out to be 73%. Besides, on human mAChR M1 [2], the concentration giving a half-maximal response (EC50) was above 10 µM and the Emax is below 5%.
